According to paper PMC7385619, “A triple action CDK4/6-PI3K-BET inhibitor with augmented cancer cell cytotoxicity” (Cell Discovery, 2020):

Columns and labels:
[1] = system: pRb Ser780 (downstream surrogate of CDK4/6 activity); assay: Immunoblotting for Rb phosphorylation; type: cell-based, human; conditions: Huh7, CHLA-255 and Jeko-1 cells, stimulated with 50 ng/mL IGF-1, increasing concentrations, 30 minutes
Text: (§1) from James Bradner (Dana-Farber Cancer Institute, Boston, MA). […]
(§2) from Novartis (Basel, Switzerland). Palbociclib was obtained from LC Laboratories (Woburn, MA). Recombinant human IGF-1 was from Peprotech (Rocky Hill, NJ). Antibodies specific for […]
(§3) Cell Signaling Technology (Beverly, MA). GAPDH antibody (GT239) was from GeneTex, Inc.
(§4) Molecular models were created to design and dock molecules in silico using the software engines AutoDock Vina1 and rDock2 and the crystal structures of BRD4 (PDB ID: 4CFK), PI3K (PDB ID: 4JPS) and CDK6 (PDB ID: 5L2T).
(§5) Bromodomain and kinase assays
(§6) Inhibition of BET family members was measured using Alpha Screen assays from Reaction Biology (Malvern, PA) with His -tagged bromodomains and acetylated histone peptides as ligands. CDK and PI3K isoform activities were measured using in vitro kinase assays from Reaction Biology and ThermoFisher Scientific (Waltham, MA), respectively. KINOME scan and BROMOscan assays were performed at Eurofins DiscoverX (Fremont, CA) with data analyzed […]
(§7) Protein expression and purification
(§8) BRD4 BD1 (aa 43-180) and BD2 (aa 342 -460) were expressed in E. coli BL21 (DE3) RIL in either Luria Broth or […] minimal media supplemented with 15NH4Cl. […]
(§9) or 100 µM in triplicate the following day. […] For CCK8, absorbance was measured at 450 nm; for Alamar Blue, fluorescence signals were read as emission at 590 nm after excitation at 560 nm. […]

[2] = system: pAKT Ser473 (downstream surrogate of PI3K activity); assay: Immunoblotting for Akt phosphorylation; type: cell-based, human; conditions: Huh7, CHLA-255 and Jeko-1 cells, stimulated with 50 ng/mL IGF-1, increasing concentrations, 30 minutes
Text: as §1, §2, §3, §4, §5, §6, §7, §8, §9

CDK6 = target: T1, CDK6 (Homo sapiens, UniProt Q00534); assay: In vitro kinase assay, CDK6; type: biochemical; conditions: Fig. 1b; italicized values from the literature (italics not visible)
T1 construct: purchased Reaction Biology
T1 sequence (Q00534 whole entry): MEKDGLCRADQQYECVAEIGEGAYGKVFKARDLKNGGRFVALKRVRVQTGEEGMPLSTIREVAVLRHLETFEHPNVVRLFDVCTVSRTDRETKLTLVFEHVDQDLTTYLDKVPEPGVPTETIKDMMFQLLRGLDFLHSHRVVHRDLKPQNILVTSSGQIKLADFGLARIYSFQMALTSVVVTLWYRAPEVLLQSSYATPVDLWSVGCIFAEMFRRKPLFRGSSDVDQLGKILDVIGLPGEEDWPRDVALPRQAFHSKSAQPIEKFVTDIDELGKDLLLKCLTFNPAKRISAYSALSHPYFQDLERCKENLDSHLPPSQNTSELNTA
T1 sequence (P24385 whole entry partner): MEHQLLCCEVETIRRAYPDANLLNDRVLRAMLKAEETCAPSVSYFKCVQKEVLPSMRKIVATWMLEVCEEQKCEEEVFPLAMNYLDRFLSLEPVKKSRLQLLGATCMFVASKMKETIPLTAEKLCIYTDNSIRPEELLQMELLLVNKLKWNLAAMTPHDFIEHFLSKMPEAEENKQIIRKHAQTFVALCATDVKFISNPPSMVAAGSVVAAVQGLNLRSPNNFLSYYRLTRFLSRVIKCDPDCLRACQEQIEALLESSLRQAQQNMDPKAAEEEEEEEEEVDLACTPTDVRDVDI

SMILES: CN(C)C(=O)c1cc2cnc(Nc3ccc(-c4csc5c(=O)cc(N6CCOCC6)oc45)cc3)nc2n1C1CCCC1 [SRX3177]
- levels of Rb phosphorylation [1]: decrease in levels of Rb phosphorylation
- levels of Akt phosphorylation [2]: decrease in levels
- IC50 (CDK6): 3.3 nM
